Reference: paper PMC10892429, “Design, Synthesis, and Antitumor Evaluation of an Opioid Growth Factor Bioconjugate Targeting Pancreatic Ductal Adenocarcinoma” (Pharmaceutics, 2024)

Experiments:
[1] = tested on: washed platelets; assay: Platelet aggregation by compounds alone, light aggregometry; conditions: tested concentration
[2] = tested on: AsPC-1-induced platelet aggregation (washed platelets); assay: Tumor cell-induced platelet aggregation (TCIPA), light aggregometry and TEM; type: cell-based, human; conditions: 50, 100 μM (any tested concentration), 10 min pre-incubation with washed platelets, AsPC-1 2 × 10^5/mL
Description: The MIA PaCa-2 and AsPC-1 cell cultures were washed and detached with 7 mM EDTA buffer. Next, the buffer was aspirated, and cells were centrifuged for 5 min at 1200 rpm and resuspended in Tyrod buffer. For TCIPA determination, MIA PaCa-2 cells were prepared at different concentrations: 10^5, 2 × 10^5, 5 × 10^5, 10^6 cells/mL; and AsPC-1 cells at concentrations of 5 × 10^4, 10^5, 2 × 10^5 cells/mL [31, 32, 33].
Samples collected after the TCIPA determination using the light aggregometer were fixed in 2.5% glutaraldehyde. The samples were then stained with 1% OsO4, gradually dehydrated with ethanol solution (30–100%), and embedded in EPON solution. Slides were prepared using a Leica UC7 ultramicrotome and stained with Uranyless and Reynolds lead citrate. Preparations were analyzed using a Tecnai G2 Spirit BioTWIN TEM [31].

[3] = tested on: HEK-293 human embryonic kidney cells; assay: MTT viability assay, HEK-293
Description: (§1) The MIA PaCa-2 and AsPC-1 pancreatic cancer cell lines were obtained from the American Type Culture Collection (ATCC; Manassas, VA, USA). MIA PaCa-2, a human pancreatic cancer cell line, was isolated from the pancreatic duct (ATCC, CRL-1420) and cultured in Dulbecco’s Modified Eagle’s Medium (DMEM), supplemented with 10% FBS, 2.5% horse serum, and 1% penicillin/streptomycin (P/S). AsPC-1, a human metastatic pancreatic tumor cell line (ATCC, CRL-1682), was cultured in Roswell Park Memorial Institute 1640 Medium, supplemented with 10% FBS and 1% P/S. HDFa, a human primary dermal fibroblast was obtained from the American Type Culture Collection (ATCC; Manassas, VA, USA). The HDFa was cultured in DMEM and supplemented with 10% FBS and 1% P/S. HEK-293 immortalized human embryonic kidney was obtained courtesy of Professor Ewa Augustin from the Gdansk University of Technology. The HEK-293 was cultured in DMEM, and supplemented with 10% FBS and 1% P/S. Cells were cultured at 37 °C in a humidified atmosphere with 5% CO2. The cells were maintained in a 75 cm^2 tissue culture flask. The medium was replaced every two days. […]
(§2) In a 96-well plate, 7 × 10^3 MIA PaCa-2 and AsPC-1 cells and 3 × 10^3 HEK-293 and 10^4 HDFa cells were seeded per well. […] Cell viability was assessed using the MTT assay. […]

[4] = tested on: HDFa human primary dermal fibroblasts; assay: MTT viability assay, HDFa
Description: as §1, §2

[5] = tested on: MIA PaCa-2 cells; assay: Cell senescence (flow cytometry and optical microscopy), MIA PaCa-2; type: cell-based, human; conditions: MIA PaCa-2, 72 h; OGF-Gem increasing concentrations (3.125–100 nM), OGF 100 nM, Gem 100 nM
Description: In a 6-well plate, 1.7 × 10^5 MIA PaCa-2 and AsPC-1 cells were seeded per well. […] After incubation, the floating and attached cells were collected using a 1% BSA solution and fixed with 2% paraformaldehyde in PBS for 10 min at room temperature. The cells were washed with 1% BSA solution and incubated with the Senescence Detection Kit for 1.5 h at 37 °C without CO2, protected from light. Next, cell senescence was measured via flow cytometry (λex 490 nm; λem 514 nm). Ten thousand events were measured per sample. The data were expressed as a percentage of untreated cells (set to 100%), which were the control.
In a 12-well plate, 10^5 PaCa-2 and AsPC-1 cells were seeded per well. […] The medium was removed from each well and washed with a PBS (pH 7.2) buffer. The cells were incubated with fixative solution (0.2% glutaraldehyde, 2% paraformaldehyde, and a PBS buffer) for 5 min at room temperature. The cells were washed with a PBS (pH 6.0) buffer. Next, the cells were incubated with a staining solution (1 mg/mL X-Gal/DMF, 5 mM K3Fe(CN)6, 5 mM K4Fe(CN)6, 2 mM MgCl2, 150 mM NaCl, and 40 mM citric acid/buffer Na2HPO4) for 16 h at 37 °C, without CO2. After incubation, the cells were observed using an optical microscope (magnification 20x).

[6] = Stability in DMEM supplemented with 10% FBS; type: in vitro ADME; conditions: DMEM + 10% FBS
Description: The OGF-Gem conjugate and OGF alone were incubated in a medium (DMEM) supplemented with 10% FBS at a temperature of 37 °C. The initial concentrations of the peptide and conjugate solutions were both 0.5 mM. Samples of 60 μL were taken immediately after the start of incubation, 30 min, 90 min, 180 min, and 23 h and mixed with 60 μL of acetonitrile to separate the proteins. The formed precipitate was removed via centrifugation for 15 min at 13,000 rpm. The supernatant was analyzed via RP-HPLC [(Shimadzu Prominence, Duisburg, Germany) linear gradient 10–90% phase B, 20 min., column Kinetex 5 μm XB-C18 100Å 150 × 4.6 mm] and MALDI-MS (Autoflex maX MALDI-TOF spectrometer, Bruker Daltonics, Bremen, Germany) using a 2,5-dihydroxybenzoic acid matrix (DHB). A stability analysis was performed according to a protocol previously described by us.

[7] = tested on: washed platelets; assay: LDH release assay on washed platelets; type: cell-based, human; conditions: 50 and 100 μM, 15 min at 37 °C, fluorescence
Description: The isolated WP (prepared as described in Section 2.12) were transferred to a 96-well plate for fluorescence measurements. Next, the OGF-Gm conjugate and the OGF at 50 and 100 μM concentrations were added. The control sample consisted of platelets suspended in Tyrod buffer. The positive control was WP treated with lysis buffer (0.1% Triton X-100) and the lysis buffered-WPs were set to 100%. Platelets with tested compounds were incubated for 15 min at 37 °C. Then, 100 μL of the LDH assay was added to each well and incubated for another 10 min, protected from light. The reaction was stopped with a Stop Solution buffer. Fluorescence intensity was measured with a plate reader (λex 560 nm; λem 590 nm). The results were expressed as the percentage of the total LDH release.

[8] = tested on: AsPC-1 metastatic pancreatic cancer cells; assay: MTT cytotoxicity assay, AsPC-1; type: cell-based, human; conditions: AsPC-1, 72 h
Description: The medium was replaced every two days.
Cell viability was assessed using the MTT assay.

[9] = all tested concentrations (1.56–100 nM), 3 days

Row | SMILES | effect on platelet aggregation (compound alone) [1] | inhibition of TCIPA [2] | reduction in HEK-293 cell viability ([3]; 100 nM, 72 h, compared to the 100 nM OGF-Gem derivative) | HDFa cell viability ([4]; 100 nM, 72 h, % of control) | induction of cell senescence [5] | concentration after 23 h compared to the initial state ([6]; 37 °C, 0.5 mM, 23 h, RP-HPLC) | presence of intact compound after 23 h (HPLC) ([6]; 37 °C, 0.5 mM, 23 h, RP-HPLC) | LDH release from platelets [7] | cytotoxicity to HEK-293 [3, 9] | cytotoxicity to HDFa [4, 9] | cytotoxic effect compared to the commonly used chemotherapeutic agent (Gem) [8] | presence of intact compound after 23 h (MS) ([6]; 37 °C, 0.5 mM, 23 h, MALDI-MS) | presence of intact compound after 3 days (HPLC) ([6]; 3 days at room temperature, RP-HPLC) | release of parent drug during incubation ([6]; HPLC and MS) | remaining at 23 h, 0.5 mM ([6]; DMEM supplemented with 10% FBS, 37 °C, 0.5 mM, 23 h, RP-HPLC, read-out: HPLC peak area of intact conjugate after 23 h relative to area just after start of incubation)
1 | Nc1ccn([C@@H]2O[C@H](CO)[C@@H](O)C2(F)F)c(=O)n1 [Gem, gemcitabine] | do not affect platelet aggregation | did not inhibit | 80% | 35% | induced | – | – | – | – | – | – | – | – | – | –
2 | CSCC[C@H](NC(=O)[C@H](Cc1ccccc1)NC(=O)CNC(=O)CNC(=O)[C@@H](N)Cc1ccc(O)cc1)C(=O)O [OGF, [Met^5]-enkephalin, reference compound] | do not affect platelet aggregation | – | – | – | – | lower | still present | did not result in significant releases of LDH | – | – | – | – | – | – | –
3 | CSCC[C@H](NC(=O)[C@H](Cc1ccccc1)NC(=O)CNC(=O)CNC(=O)[C@H](Cc1ccc(O)cc1)NC(=O)CCC(=O)OC[C@H]1O[C@@H](n2ccc(N)nc2=O)C(F)(F)[C@@H]1O)C(=O)O [OGF-Gem] | do not affect platelet aggregation | – | – | – | – | – | confirmed | did not result in significant releases of LDH | slight cytotoxicity effect | slight cytotoxicity effect | more pronounced cytotoxic effect | not confirmed | confirmed | gradual release of free Gem | ~39%
